Laboratory results published in patent US20070275925A1, “ASTHMA DIAGNOSIS AND THERAPY” (REGENTS OF THE UNIVERSITY OF CALIFORNIA, priority 2006, published 2007).
“Also recorded” adds a separate entry of the source.

Legend:
[1] = tested on: epithelial brushings; test: Microarray gene expression in epithelial brushings, randomized placebo-controlled trial of inhaled fluticasone; type: in vivo, human
Method: In three cross sectional studies and a clinical trial, epithelial brushings were collected by bronchoscopy from 42 subjects with asthma, 16 current smokers without asthma, and 28 healthy controls. Cross-sectional studies comprised 2 visits, the first for characterization and the second for bronchoscopy. The clinical trial was a 10 week, randomized, double-blind, placebo-controlled trial specifically designed to determine the effects of inhaled fluticasone (500 μg twice daily) on airway gene expression and to relate gene expression changes to improvements in lung function (FIG. 1). Bronchoscopy was performed at baseline and repeated 1 week after starting study drug. Thirty-five subjects had adequate baseline bronchoscopy and 32 had RNA available from epithelial brushings at both bronchoscopies. Lung function was measured at intervals over the 8-week treatment period. Epithelial RNA from a subset of the subjects studied by microarray here have been used in other PCR based gene expression studies performed by our group.^4 Additional information is provided in the supplementary appendix.
Brushings yielded 1,300,000±800,000 cells of which 97±3% were epithelial. For microarray analysis, […] total epithelial RNA was amplified using NuGen Ovation RNA amplification system. Then 2.75 μg sscDNA was hybridized to Affymetrix U133 plus 2.0 arrays (>54,000 probe sets coding for 38,500 genes). Array images were analyzed using Affymetrix GeneChip Expression Analysis Software. Bioconductor^5 was used for quality control (affyPLM algorithm), preprocessing (RMA algorithm), cluster analysis, and linear modeling.^5-7 Raw array data are available from the Gene Expression Omnibus public database (http://www.ncbi.nlm.nih.gov/geo/, accession number pending). Selected microarray findings were confirmed by real-time PCR, enzyme linked immunosorbent assay (ELISA) or immunohistochemistry. In vitro studies of the effects of interleukin-13 (IL-13) on expression of selected genes were performed using primary airway epithelial cells grown at an air-liquid interface (additional detail in supplementary appendix).
For between group comparisons, t-test, rank-sum test or ANOVA followed by pair-wise analyses with Sidak correction were used as appropriate. Correlation of mRNA copy number by PCR (log transformed for normality) and lung function was performed using Pearson correlation. STATA version 9 software was used (StataCorp, College Station Tex.), and p<0.05 was taken as statistically significant. In microarray analyses, differential gene expression was assessed using linear models (controlling for age and gender). For between group comparisons, a Bonferroni corrected p-value<0.05 was used to identify differentially expressed genes. For the placebo-controlled trial, changes in gene expression from baseline to post-intervention were calculated and the mean changes in the fluticasone and placebo groups were compared. A two-fold change (either higher or lower in the fluticasone group as compared to placebo), was used to identify differentially expressed genes. Microarray analyses were performed using Bioconductor open source software^5 in the R statistical environment.
Protocol: This was a 6 visit, 10 week, randomized, double-blind, placebo-controlled trial specifically designed to determine the effects of inhaled fluticasone on airway gene expression and to relate those gene expression changes to improvements in lung function. After a one-week run-in/characterization period, subjects were randomized to receive 2 puffs BID of fluticasone propionate (250 μg/puff) or matching placebo for 8 weeks, followed by a one week run-out. Subjects were randomized in blocks designed to yield a greater number of subjects randomized to fluticasone as compared to placebo in order to maximize our ability to relate gene expression to lung function improvements within the intervention group. […]

[2] = Methacholine responsiveness (PC20) in the clinical trial; type: in vivo, human; details: 4 and 8 weeks
Method: Protocol: This was a 6 visit, 10 week, randomized, double-blind, placebo-controlled trial specifically designed to determine the effects of inhaled fluticasone on airway gene expression and to relate those gene expression changes to improvements in lung function. After a one-week run-in/characterization period, subjects were randomized to receive 2 puffs BID of fluticasone propionate (250 μg/puff) or matching placebo for 8 weeks, followed by a one week run-out. Subjects were randomized in blocks designed to yield a greater number of subjects randomized to fluticasone as compared to placebo in order to maximize our ability to relate gene expression to lung function improvements within the intervention group. […] Spirometry was measured at baseline, before both bronchoscopies, at 4 and 8 weeks after starting study medication, and after the one week run-out according to American Thoracic Society criteria using a dry rolling-seal spirometer (Model VRS2000, PDS Instrumentation, S&M Instrument Co., Doylestown, Pa.). Methacholine responsiveness was measured at baseline and at 4 and 8 weeks after starting study medication using a five-breath dosimeter method (modified from Chai et al).^5

[3] = fluticasone group as compared to placebo group, baseline to 1 week
[4] = fluticasone group, baseline to 1 week, asthmatics

CCC(=O)O[C@]1(C(=O)SCF)[C@H](C)C[C@H]2[C@@H]3C[C@H](F)C4=CC(=O)C=C[C@]4(C)[C@@]3(F)[C@@H](O)C[C@@]21C [fluticasone, fluticasone propionate]
CST1 gene expression in airway epithelial brushing from asthmatics treated with inhaled fluticasone ([1]; additional gene profiling experiments): upregulated | CST1 reduction by array ([1]; fluticasone arm as compared to the placebo arm): 2 fold | PRR4 gene expression change with fluticasone ([1]; fluticasone arm as compared to the placebo arm, asthmatic airway epithelial cells): only modestly reduced; also recorded: no significant change | Fold-difference Combined, 227061_at (CDNA FLJ44429 fis) [1, 3]: 2.0 fold | Fold-difference Combined, 228854_at (Transcribed locus) [1, 3]: 10.5 fold | Fold-difference Combined, 228858_at (Transcribed locus) [1, 3]: 2.8 fold | Fold-difference Combined, 230782_at (CDNA FLJ33419 fis) [1, 3]: 2.2 fold | Fold-difference Combined, 231262_at (Transcribed locus) [1, 3]: 2.8 fold | Fold-difference Combined, 244677_at [1, 3]: 2.3 fold | Fold-difference Combined, C6 [1, 3]: 2.2 fold | Fold-difference Combined, C14orf78 [1, 3]: 2.1 fold | Fold-difference Combined, CLCA1 [1, 3]: −2.4 fold | Fold-difference Combined, CST1 [1, 3]: −2.1 fold | Fold-difference Combined, FKBP51 [1, 3]: 4.4 fold | Fold-difference Combined, FXYD1 [1, 3]: 2.1 fold | Fold-difference Combined, GAS1 [1, 3]: 3.3 fold | Fold-difference Combined, GPR109B [1, 3]: 2.4 fold | Fold-difference Combined, HBA2 [1, 3]: 2.7 fold | Fold-difference Combined, HBB [1, 3]: 2.1 fold | Fold-difference Combined, HIF3A [1, 3]: 2.7 fold | Fold-difference Combined, KLF9 [1, 3]: 2.4 fold | Fold-difference Combined, LOC157381 [1, 3]: 2.1 fold | Fold-difference Combined, MUC13 [1, 3]: −2.0 fold | Fold-difference Combined, PHACTR3 [1, 3]: 3.2 fold | Fold-difference Combined, POSTN [1, 3]: −2.1 fold | Fold-difference Combined, PPP1R16B [1, 3]: 2.4 fold | Fold-difference Combined, SERPINB2 [1, 3]: −2.9 fold | Fold-difference Combined, TFCP2L1 [1, 3]: 3.0 fold | Fold-difference Combined, TSC22D3 [1, 3]: 2.5 fold | Fold-difference Combined, TU3A [1, 3]: 2.8 fold | Fold-difference Combined, UBD [1, 3]: −2.1 fold | Fold-difference Combined, UBE2H [1, 3]: 2.1 fold | Fold-difference Combined, WIPI49 [1, 3]: 2.0 fold | Fold-difference Flovent, 227061_at (CDNA FLJ44429 fis) [1, 4]: 1.6 fold | Fold-difference Flovent, 228854_at (Transcribed locus) [1, 4]: 7.3 fold | Fold-difference Flovent, 228858_at (Transcribed locus) [1, 4]: 2.4 fold | Fold-difference Flovent, 230782_at (CDNA FLJ33419 fis) [1, 4]: 2.1 fold | Fold-difference Flovent, 231262_at (Transcribed locus) [1, 4]: 2.4 fold | Fold-difference Flovent, 244677_at [1, 4]: 1.8 fold | Fold-difference Flovent, C6 [1, 4]: 1.6 fold | Fold-difference Flovent, C14orf78 [1, 4]: 1.8 fold | Fold-difference Flovent, CLCA1 [1, 4]: −2.7 fold | Fold-difference Flovent, CST1 [1, 4]: −2.4 fold | Fold-difference Flovent, FKBP51 [1, 4]: 3.6 fold | Fold-difference Flovent, FXYD1 [1, 4]: 1.4 fold | Fold-difference Flovent, GAS1 [1, 4]: 2.7 fold | Fold-difference Flovent, GPR109B [1, 4]: 1.9 fold | Fold-difference Flovent, HBA2 [1, 4]: 3.0 fold | Fold-difference Flovent, HBB [1, 4]: 2.5 fold | Fold-difference Flovent, HIF3A [1, 4]: 2.7 fold | Fold-difference Flovent, KLF9 [1, 4]: 2.2 fold | Fold-difference Flovent, LOC157381 [1, 4]: 1.7 fold | Fold-difference Flovent, MUC13 [1, 4]: −1.6 fold | Fold-difference Flovent, PHACTR3 [1, 4]: 3.1 fold | Fold-difference Flovent, POSTN [1, 4]: −2.1 fold | Fold-difference Flovent, PPP1R16B [1, 4]: 2.1 fold | Fold-difference Flovent, SERPINB2 [1, 4]: −2.5 fold | Fold-difference Flovent, TFCP2L1 [1, 4]: 3.1 fold | Fold-difference Flovent, TSC22D3 [1, 4]: 2.0 fold | Fold-difference Flovent, TU3A [1, 4]: 2.3 fold | Fold-difference Flovent, UBD [1, 4]: −2.0 fold | Fold-difference Flovent, UBE2H [1, 4]: 2.0 fold | Fold-difference Flovent, WIPI49 [1, 4]: 1.7 fold | PC20 methacholine improvements, fluticasone versus placebo [2]: not statistically different; also recorded: no statistically significant differences
